Results reported in US20210113456A1, “PHARMACEUTICAL COMPOSITIONS OF RAMELTEON AND METHODS OF USE THEREOF” (MAXINASE LIFE SCIENCES LIMITED, priority 2017, published 2021).

What was measured:
MT1 receptors = MT1 receptors (Homo sapiens, UniProt P48039); settings: relative to parent drug; cited from earlier work
hepatic tumors = settings: high concentration; chronic toxicology study; cited from earlier work
MT2 receptors = target: T1, MT2 receptors (Homo sapiens, UniProt P49286); settings: relative to parent drug; cited from earlier work
T1 sequence (P49286 1-362): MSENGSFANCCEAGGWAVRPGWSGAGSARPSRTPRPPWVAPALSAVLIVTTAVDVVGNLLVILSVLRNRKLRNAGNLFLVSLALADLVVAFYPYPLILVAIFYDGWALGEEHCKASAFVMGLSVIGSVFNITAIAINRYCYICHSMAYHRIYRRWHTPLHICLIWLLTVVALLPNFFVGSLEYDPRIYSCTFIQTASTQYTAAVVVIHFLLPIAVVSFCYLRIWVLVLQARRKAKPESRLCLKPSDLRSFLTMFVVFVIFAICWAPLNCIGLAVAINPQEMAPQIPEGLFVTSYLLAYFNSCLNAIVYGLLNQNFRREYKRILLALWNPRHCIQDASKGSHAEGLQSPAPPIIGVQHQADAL

[1] = system: other CNS receptors associated with sedation (e.g., GABA, dopamine, opiate, serotonin); settings: cited from earlier work
[2] = cited from earlier work
Caco-2 monolayer = assay: Permeability through Caco-2 monolayer; assay type: in vitro ADME; settings: in vitro
[3] = Pharmacokinetics of ramelteon after nasal and oral administration; set-up: species or system SD rats; settings: Sprague-Dawley (SD), rat, in vivo
Protocol: The objective was to study the pharmacokinetics of Ramelteon by determining the plasma concentrations after oral and intranasal administration. SD rats (n=3-4 for each dose) received an intranasal dose (0.1 mg/animal) of nasal solution composition (RNS-01, 2.5 mg/mL) which was prepared according to the EXAMPLE 1 of this invention, and an oral dose (0.1 mg/animal) of […] oral solution (ROS-01) which was prepared by directly dissolving ramelteon into saline solution to the final concentration of 0.1 mg/mL. Multiple blood samples were collected from tail vein until 6 hrs. Ramelteon concentration in rat plasma was determined using a validated LC/MS/MS method. The standard non-compartmental method was used to generate the pharmacokinetic parameters.

Chain of MT1 receptors (P48039 whole entry): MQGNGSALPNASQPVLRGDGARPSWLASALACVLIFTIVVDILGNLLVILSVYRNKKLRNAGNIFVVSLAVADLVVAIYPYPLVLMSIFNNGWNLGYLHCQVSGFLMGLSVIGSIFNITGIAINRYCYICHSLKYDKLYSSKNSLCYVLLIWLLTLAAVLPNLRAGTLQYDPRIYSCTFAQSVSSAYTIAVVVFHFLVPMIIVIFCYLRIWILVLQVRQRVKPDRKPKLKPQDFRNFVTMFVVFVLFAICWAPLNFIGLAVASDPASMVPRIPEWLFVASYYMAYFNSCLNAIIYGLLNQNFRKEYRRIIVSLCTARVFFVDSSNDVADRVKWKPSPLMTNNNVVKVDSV

permeability through Caco-2 monolayer (Caco-2 monolayer)	improvement of bioavailability, intranasal versus oral solution of same dose [3]	SMILES	binding affinity for MT1 receptor relative to ramelteon (MT1 receptors)	incidence of hepatic tumors (hepatic tumors)	binding affinity for MT2 receptor relative to ramelteon (MT2 receptors)	affinity for other CNS receptors [1]	increase of systemic exposure (AUC) after co-administration of fluvoxamine ([2]; fluvoxamine, a strong CYP1A2 inhibitor)	inter-subject variability ([2]; oral ramelteon)
–	–	CC(O)C(=O)NCCC1CCc2ccc3c(c21)CCO3 (centres unmarked) [M-II]	about one-tenth	increase the incidence of hepatic tumors	one-fifth	–	–	–
high permeability	over 20 fold	CCC(=O)NCC[C@@H]1CCc2ccc3c(c21)CCO3 [ramelteon]	–	–	–	no affinity	approximately 190 fold	up to 100%
